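Briefly, cells in 96-well plates were exposed to five compound concentrations for 48 h, and endpoints were estimated by linear interpolation. GI50 marks 50% less growth. TGI denotes the concentration required for complete inhibition of growth.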
Legend:
Experiment in all cases: NCI-60 cell line screen, 48 h
CAKI-1 renal = test system: CAKI-1 renal
OVCAR-3 ovarian = test system: OVCAR-3 ovarian
HS 578T breast = test system: HS 578T breast
SW-620 colon = test system: SW-620 colon
MDA-MB-435 = test system: MDA-MB-435
A498 renal = test system: A498 renal
UACC-257 melanoma = test system: UACC-257 melanoma
HL-60(TB) leukemia = test system: HL-60(TB) leukemia
CCRF-CEM leukemia = test system: CCRF-CEM leukemia
UO-31 renal = test system: UO-31 renal
MCF7 breast = test system: MCF7 breast
ACHN renal = test system: ACHN renal
OVCAR-4 ovarian = test system: OVCAR-4 ovarian
BT-549 breast = test system: BT-549 breast
NCI/ADR-RES ovarian = test system: NCI/ADR-RES ovarian
PC-3 prostate = test system: PC-3 prostate
MDA-MB-231 breast = test system: MDA-MB-231 breast
OVCAR-5 ovarian = test system: OVCAR-5 ovarian
OVCAR-8 ovarian = test system: OVCAR-8 ovarian
NCI-H23 lung = test system: NCI-H23 lung
M14 melanoma = test system: M14 melanoma
HT29 colon = test system: HT29 colon
DU-145 prostate = test system: DU-145 prostate
HOP-62 NSCLC = test system: HOP-62 NSCLC
SN12C renal = test system: SN12C renal
U251 CNS = test system: U251 CNS
MOLT-4 leukemia = test system: MOLT-4 leukemia
LOX IMVI melanoma = test system: LOX IMVI melanoma
KM12 colon = test system: KM12 colon
SF-295 CNS = test system: SF-295 CNS
SF-539 CNS = test system: SF-539 CNS
HCC-2998 colon = test system: HCC-2998 colon
HCT-15 colon = test system: HCT-15 colon
786-0 renal = test system: 786-0 renal
SK-MEL-2 melanoma = test system: SK-MEL-2 melanoma
UACC-62 melanoma = test system: UACC-62 melanoma
EKVX NSCLC = test system: EKVX NSCLC
SK-MEL-5 melanoma = test system: SK-MEL-5 melanoma
COLO 205 colon = test system: COLO 205 colon
A549 NSCLC = test system: A549 NSCLC
MALME-3M melanoma = test system: MALME-3M melanoma
T-47D breast = test system: T-47D breast
SF-268 CNS = test system: SF-268 CNS
K-562 leukemia = test system: K-562 leukemia
HCT-116 colon = test system: HCT-116 colon
SNB-19 CNS = test system: SNB-19 CNS
SNB-75 CNS = test system: SNB-75 CNS
SR leukemia = test system: SR leukemia
RXF 393 renal = test system: RXF 393 renal
NCI-H226 lung = test system: NCI-H226 lung
TK-10 renal = test system: TK-10 renal
NCI-H522 lung = test system: NCI-H522 lung
IGROV1 ovarian = test system: IGROV1 ovarian
SK-MEL-28 melanoma = test system: SK-MEL-28 melanoma
NCI-H460 lung = test system: NCI-H460 lung
SK-OV-3 ovarian = test system: SK-OV-3 ovarian

SMILES: ClCCn1cnc2c(SCc3ccccc3Cl)ncnc21
- GI50 (CAKI-1 renal): 0.272 µM
- TGI (CAKI-1 renal): 24.7 µM
- GI50 (OVCAR-3 ovarian): 9.31 µM
- TGI (OVCAR-3 ovarian): 29.8 µM
- GI50 (HS 578T breast): 19.4 µM
- TGI (HS 578T breast): 89 µM
- GI50 (SW-620 colon): 0.511 µM
- TGI (SW-620 colon): > 100 µM
- GI50 (MDA-MB-435): 0.779 µM
- TGI (MDA-MB-435): 50.7 µM
- GI50 (A498 renal): 24.5 µM
- TGI (A498 renal): > 93 µM
- GI50 (UACC-257 melanoma): 2.64 µM
- GI50 (HL-60(TB) leukemia): 0.416 µM
- TGI (HL-60(TB) leukemia): 8.94 µM
- GI50 (CCRF-CEM leukemia): 2 µM
- TGI (CCRF-CEM leukemia): 36.5 µM
- GI50 (UO-31 renal): 0.883 µM
- TGI (UO-31 renal): 41.8 µM
- GI50 (MCF7 breast): 0.446 µM
- TGI (MCF7 breast): > 100 µM
- GI50 (ACHN renal): 0.51 µM
- TGI (ACHN renal): > 100 µM
- GI50 (OVCAR-4 ovarian): 14.4 µM
- TGI (OVCAR-4 ovarian): > 100 µM
- GI50 (BT-549 breast): 8.79 µM
- TGI (BT-549 breast): 53.6 µM
- GI50 (NCI/ADR-RES ovarian): 1.2 µM
- TGI (NCI/ADR-RES ovarian): > 52.5 µM
- GI50 (PC-3 prostate): 0.717 µM
- TGI (PC-3 prostate): 46.6 µM
- GI50 (MDA-MB-231 breast): 5.77 µM
- TGI (MDA-MB-231 breast): > 100 µM
- GI50 (OVCAR-5 ovarian): 37.8 µM
- TGI (OVCAR-5 ovarian): > 100 µM
- GI50 (OVCAR-8 ovarian): 0.576 µM
- TGI (OVCAR-8 ovarian): > 90.5 µM
- GI50 (NCI-H23 lung): 9.69 µM
- TGI (NCI-H23 lung): > 73.7 µM
- GI50 (M14 melanoma): 7.5 µM
- TGI (M14 melanoma): > 76.6 µM
- GI50 (HT29 colon): 0.191 µM
- TGI (HT29 colon): > 100 µM
- GI50 (DU-145 prostate): 0.754 µM
- TGI (DU-145 prostate): 25 µM
- GI50 (HOP-62 NSCLC): 2.56 µM
- TGI (HOP-62 NSCLC): > 100 µM
- GI50 (SN12C renal): 1.26 µM
- TGI (SN12C renal): > 100 µM
- GI50 (U251 CNS): 0.0925 µM
- TGI (U251 CNS): > 89.8 µM
- GI50 (MOLT-4 leukemia): 0.176 µM
- TGI (MOLT-4 leukemia): 9.4 µM
- GI50 (LOX IMVI melanoma): 0.0756 µM
- TGI (LOX IMVI melanoma): 11.9 µM
- GI50 (KM12 colon): 0.789 µM
- TGI (KM12 colon): 46.6 µM
- GI50 (SF-295 CNS): 0.184 µM
- TGI (SF-295 CNS): 20.2 µM
- GI50 (SF-539 CNS): 0.267 µM
- TGI (SF-539 CNS): 68.8 µM
- GI50 (HCC-2998 colon): 1.75 µM
- GI50 (HCT-15 colon): 0.0383 µM
- TGI (HCT-15 colon): > 100 µM
- GI50 (786-0 renal): 0.671 µM
- TGI (786-0 renal): 20.4 µM
- GI50 (SK-MEL-2 melanoma): 12.7 µM
- TGI (SK-MEL-2 melanoma): 54.4 µM
- GI50 (UACC-62 melanoma): 0.529 µM
- TGI (UACC-62 melanoma): > 48.1 µM
- GI50 (EKVX NSCLC): 13.8 µM
- TGI (EKVX NSCLC): > 78 µM
- GI50 (SK-MEL-5 melanoma): 0.272 µM
- TGI (SK-MEL-5 melanoma): 43.3 µM
- GI50 (COLO 205 colon): 2.01 µM
- TGI (COLO 205 colon): > 100 µM
- GI50 (A549 NSCLC): 0.278 µM
- TGI (A549 NSCLC): > 39.6 µM
- GI50 (MALME-3M melanoma): 14.2 µM
- TGI (MALME-3M melanoma): 45.4 µM
- GI50 (T-47D breast): 13.7 µM
- TGI (T-47D breast): 79.5 µM
- GI50 (SF-268 CNS): 4.87 µM
- TGI (SF-268 CNS): > 84.7 µM
- GI50 (K-562 leukemia): 0.0755 µM
- TGI (K-562 leukemia): > 59.1 µM
- GI50 (HCT-116 colon): 0.0679 µM
- TGI (HCT-116 colon): 21 µM
- GI50 (SNB-19 CNS): 1.98 µM
- TGI (SNB-19 CNS): > 100 µM
- GI50 (SNB-75 CNS): 6.69 µM
- TGI (SNB-75 CNS): > 63.2 µM
- GI50 (SR leukemia): 0.0609 µM
- TGI (SR leukemia): 13.1 µM
- GI50 (RXF 393 renal): 1.35 µM
- TGI (RXF 393 renal): 26.4 µM
- GI50 (NCI-H226 lung): 3.52 µM
- TGI (NCI-H226 lung): 59.9 µM
- GI50 (TK-10 renal): 5.44 µM
- TGI (TK-10 renal): > 83.1 µM
- GI50 (NCI-H522 lung): 2.64 µM
- TGI (NCI-H522 lung): > 71.1 µM
- GI50 (IGROV1 ovarian): 0.51 µM
- TGI (IGROV1 ovarian): > 41.6 µM
- GI50 (SK-MEL-28 melanoma): 5.3 µM
- TGI (SK-MEL-28 melanoma): > 83.8 µM
- GI50 (NCI-H460 lung): 0.0533 µM
- TGI (NCI-H460 lung): 16.4 µM
- GI50 (SK-OV-3 ovarian): 9.72 µM
- TGI (SK-OV-3 ovarian): > 100 µM

From PubChem BioAssay (NCI)
